Source: paper PMC8158687, “Xanthones Active against Multidrug Resistance and Virulence Mechanisms of Bacteria” (Antibiotics, 2021)

Tests used:
[1] = tested on: S. aureus 272123; assay: Efflux pump inhibition assay (real-time ethidium bromide accumulation); format: cell-based, Staphylococcus aureus; conditions: compound 50 µM, EB 1 µg/mL, minute 60
Experimental: Compounds 1–20 were assessed for their capability of modulating ethidium bromide (EB) accumulation on two resistant strains. […] However, norA is a core gene of the S. aureus as a species, which means that the NorA pump occurs in all S. aureus strains.
(§1) Salmonella enterica serovar Typhimurium SE03, was used as a Gram-negative bacterium. This strain has a deletion of the acrA gene, which was predicted with the least affinity for the compounds. The aim of these studies was to perform a first screening of these compounds and their ability to modulate the efflux of EB. […] The relative fluorescence index (RFI) was calculated based on the means of relative fluorescence units, depicted in Table 2.
(§2) Compounds 1–20 were evaluated for their ability to inhibit efflux pumps in SE03 and S. aureus 272123 strains, through the real-time fluorimetry, monitoring the intracellular accumulation of EB, an efflux pump substrate. This was determined by the automated method using a CLARIOstar Plus plate reader (BMG Labtech, Ortenberg, Germany). Reserpine and CCCP were applied at 25 µM as positive controls, and the solvent DMSO was applied at 1% v/v. The bacterial strains were incubated in an appropriate culture media (TSB—S. aureus 272123; LB-B—SE03) at 37 °C until they reached an optical density (OD) between 0.4 and 0.6 at λ = 600 nm. The culture was centrifuged at 13,000× g for 3 min, and the pellet washed and resuspended with PBS. The suspension was centrifuged again in the same conditions and resuspended in PBS. The compounds were applied at 50 µM in a solution of a non-toxic concentration of EB (1 µg/mL) in PBS. Then, 50 µL of this solution were transferred into a 96-well black microtiter plate (Greiner Bio-One Hungary Kft, Mosonmagyaróvár, Fertősor, Hungary), and 50 µL of bacterial suspension (OD600 0.4–0.6) were added to each well. The plates were placed into the CLARIOstar plate reader, and the fluorescence was monitored at excitation and emission wavelengths of 530 nm and 600 nm every minute for one hour on a real-time basis. From the real-time data, the activity of the compounds, namely the RFI of the last time point (minute 60) of the EB accumulation assay, was calculated according to the following formula:(1) RFI=RFtreated−RFuntreated/RFuntreated where RFtreated is the relative fluorescence (RF) at the last time point of EB accumulation curve in the presence of the compound, and RFuntreated is the RF at the last time point of the EB accumulation curve of the untreated control, having only the solvent (DMSO) control. The accumulation curves were designed using Microsoft Excel®.

[2] = tested on: S. aureus ATCC 29213; assay: Inhibition of biofilm formation (crystal violet); format: cell-based, Staphylococcus aureus; conditions: half the MIC, or 100 µM if MIC >100 µM, 48 h, 30 °C
[3] = tested on: Serratia marcescens AS-1; assay: Quorum sensing inhibition assay (disk, pigment production); format: cell-based; conditions: AS1, read-out: Quorum Sensing Inhibition (mm) ± SD
Excerpt: (§3) The sensor strain Chromobacterium violaceum CV026 and the acyl-homoserine lactones (AHLs) producer strain Sphingomonas paucimobilis Ezf 10-17 (EZF) were inoculated as parallel lines, and the AHL producers, Chromobacterium violaceum wild type 85 (wt85) and Serratia marcescens AS-1 were inoculated as a single line.
(§4) For the QS tests, all the bacteria used were Gram-negative. The bacteria used were Chromobacterium violaceum wild type 85 (wt85), characterized by the AHL signal molecule-mediated production of the purple violacein pigment, capable of endogenous QS-signal molecule production (N-hexanoyl-L-HSL), C. violaceum CV026 (CV026), a Tn5 transposase-mutant, AHL-signal molecule indicator strain (produces purple violacein pigment in the presence of AHL), which is incapable of endogenous QS-signal molecule-production, but useful in the detection of external stimuli, Sphingomonas paucimobilis Ezf 10-17 (EZF), AHL-producing-strain (used with C. violaceum CV026), and Serratia marcescens AS-1, characterized by the AHL signal molecule-mediated production of the orange–red pigment prodigiosin (2-methyl-3-pentyl-6-methoxyprodigiosin), capable of endogenous QS-signal molecule production (N-hexanoyl-L-HSL), were applied.
(§5) The QS inhibitory effect of the compounds was examined on the EZF and the sensor CV026 strains, on the wt85 strain, and on S. marcescens, for 4, 5, 11, 12, 16, 19, and 20. The method used was the parallel inoculation method, where pair combinations of the used sensor strain CV026 and the N-acyl-homoserine lactone (AHL)-producing strain EZF were inoculated directly onto the LB*-A agar surface in parallel, at an approximate distance of 5 mm from each other. S. marcescens AS-1 and wt85 were inoculated as a single line. Filter paper disks (7 mm in diameter) were placed on the center of the inoculated line(s) and impregnated with 8 µL of a solution of 10 mM of the compounds. […] The agar plates were incubated at room temperature (20 °C) for 24–48 h. The QS inhibition was accessed visually, through the inhibition of pigment production. The discolored, but intact, bacterial colonies were measured with a ruler.

[4] = tested on: Chromobacterium violaceum wild type 85 (wt85); assay: as above; format: cell-based; conditions: read-out: Quorum Sensing Inhibition (mm) ± SD
Excerpt: as §3, §4, §5

[5] = tested on: SE03 (acrA gene-inactivated Salmonella enterica serovar Typhimurium SL1344); assay: Efflux pump inhibition assay (real-time ethidium bromide accumulation); format: cell-based; conditions: compound 50 µM, EB 1 µg/mL, minute 60
Experimental: as §1, §2

[6] = tested on: EZF + CV026 (Sphingomonas paucimobilis Ezf 10-17 + Chromobacterium violaceum CV026); assay: Quorum sensing inhibition assay (parallel inoculation, pigment production); format: cell-based; conditions: read-out: Quorum Sensing Inhibition (mm) ± SD
Excerpt: as §3, §4, §5

[7] = Cytotoxicity assay (MTT); format: cell-based, mouse; conditions: mouse, NIH/3T3 mouse fibroblast cells, 24 h, MTT, read-out: Cytotoxicity IC50 (µM) ± SD
Experimental: (§6) In order to apply efflux pump inhibitors to treat patients, several issues should be addressed.
(§7) Mouse fibroblasts (NIH/3T3, ATCC CRL-1658TM) were cultivated in DMEM (Gibco 52100-039) and supplemented with 10% heat-inactivated fetal bovine serum (Biowest, VWR International Kft, Debrecen, Hungary), 2 mM of L-glutamine, 1 mM Na pyruvate, 100 U/L and 10 mg/L penicillin/streptomycin mixture (Sigma-Aldrich Chemie GmbH, Steinheim, Germany), respectively, and 0.1% nystatin (8.3 g/L in ethylene glycol). The adherent cells were detached using a combination of 0.25% Trypsin–Versene (EDTA) solution for 5 min at 37 °C. Before each cytotoxicity assay using this cell line, cells were seeded in untreated 96-well flat-bottom microtiter plates, following a 4-h incubation period in a humidified atmosphere (5% CO2, 95% air) at 37 °C [60].
(§8) The cytotoxicity of 4, 12, 16, 19, and 20 was assessed in NIH/3T3 cells. The compounds were added to the cells distributed into 96-well flat bottom microtiter plates at concentrations of […] and initially incubated for 24 h, after which a solution of MTT in PBS was added to each well and incubated for another 4 h. The concentrations used were the same as in the MIC assay. After this, 100 μL of SDS (10% in a 0.01 M HCl solution) were added to each well and incubated overnight at 37 °C. Doxorubicin was used as the positive control. Cell growth was determined in quadruplicate by measuring OD at λ = 540 nm (reference 630 nm) in a Multiscan EX ELISA reader (Thermo Labsystems, Cheshire, WA, USA). The percentage of inhibition of cell growth was determined according to the equation: (2) 100−(ODsample−ODmedium control/ODcell control−ODmedium control)×100

[8] = tested on: NIH/3T3 mouse fibroblast cells; assay: Cytotoxicity assay (MTT); format: cell-based
Experimental: as §6, §7, §8

[9] = tested on: S. aureus 272123; assay: Inhibition of biofilm formation (crystal violet); format: cell-based, Staphylococcus aureus; conditions: half the MIC, or 100 µM if MIC >100 µM, 48 h, 30 °C
Experimental: The biofilm inhibition, presented in percentages (%), was calculated based on the mean of absorbance units.
The bacterial strains used were the Gram-positive S. aureus ATCC 25923 and S. aureus 272123. The detection of the biofilm formation was possible with the use of the dye crystal violet (CV; 0.1% v/v). The initial inoculum was incubated in TSB overnight, and then diluted to an OD600 of 0.1. Then, the bacterial suspension was added to 96-well microtiter plates and the compounds were added at half the MIC. […] The final volume in each well was 200 µL. […] The plates were incubated at 30 °C for 48 h, with gentle stirring (100 rpm). After this incubation period, the TSB medium was discarded, and the plates were washed with tap water to remove unattached cells. Afterwards, 200 µL of a 0.1% v/v CV solution were added to the wells and incubated for 15 min at room temperature. Then, the CV solution was removed from the wells, and the plates were washed again with tap water, and 200 µL of a 70% ethanolic solution were added to the wells. The biofilm formation was determined by measuring the OD600 using a Multiscan EX ELISA plate reader (Thermo Labsystems, Cheshire, WA, USA). The anti-biofilm effect of the compounds was expressed as the percentage (%) of decrease in biofilm formation.

[10] = tested on: extended-spectrum β-lactamase producing strain; set-up: method as in PMID 32455828; conditions: previous results; ref [14]; cited from earlier work

SMILES	RFI ± SD (relative fluorescence index) [1]	Inhibition of Biofilm Formation (%) ± SD [2]	zone of inhibition at 10000 µM [3] [mm]	zone of inhibition at 10000 µM [4] [mm]	RFI ± SD (relative fluorescence index) [5]	zone of inhibition at 10000 µM [6] [mm]	IC50 at 24 h [7] [µM]	Cytotoxicity (in words) [8]	Inhibition of Biofilm Formation (%) ± SD [9]	activity against extended-spectrum β-lactamase producing strain (in words) [10]
COc1ccc2c(=O)c3c(C=O)cc(OC)c(OC)c3oc2c1 [Compound 16]	5.49 ± 8.04 ^5	0 ^2%	0	0	0.13 ± 0.15 ^10	42 ± 0.8	26.9 ± 5.87	moderate cytotoxicity	58.98 ± 12.00 ^4%	–
COc1cc(CBr)c2c(=O)c3ccccc3oc2c1OC [Compound 12]	0.11 ± 0.30 ^4	0 ^1%	0	0	1.75 ± 1.57 ^9	30 ± 0.5	54.6 ± 5.3	moderate cytotoxicity	6.27 ± 1.41 ^3%	–
O=c1c2cc(O)ccc2oc2cccc(O)c12 [Compound 4]	0.13 ± 0.08 ^2	0 ^1%	0	0	2.90 ± 0.71 ^7	0	> 100	no cytotoxicity was observed	–	not active
